From patent US20240391862A1, “(1,4,5-TRISUBSTITUTED-1H-PYRAZOL-3-YL)OXY-2-ALKOXY ALKYL ACIDS AND THEIR DERIVATIVES, THEIR SALTS AND THEIR USE AS HERBICIDAL AGENTS” (Bayer AKtiengesellschaft, priority 2021, published 2024)

Experiments:
ZEAMX = assay: Post-emergence herbicidal effect and crop plant compatibility, greenhouse pot test; format: in vivo, Zea mays; conditions: one-leaf stage, rated visually after about 3 weeks vs untreated controls
Description: (§1) • ALOMY: Alopecurus myosuroides SETVI: Setaria viridis • AVEFA: Avena fatua POLCO: Fallopia convolvulus • AMARE: Amaranthus retroflexus ECHCG: Echinochloa crus-galli • LOLRJ: Lolium rigidum STEME: Stellaria media • VERPE: Veronica persica MATIN: Tripleurospermum inodorum • DIGSA: Digitaria sanguinalis ABUTH: Abutylon threophrasti • TRZAS: Triticum aestivum VIOTR: Viola tricolor • BRSNW: Brassica napus ZEAMX: Zea mays • PHBPU: Ipomoea purpurea GLXMA: Glycine max • ORYSA: Oryza sativa HORMU: Hordeum murinum
(§2) Seeds of monocotyledonous and dicotyledonous weeds and crop plants are placed in sandy loam in plastic or organic planting pots, covered with soil and cultivated in a greenhouse under controlled growth conditions. 2 to 3 weeks after sowing, the trial plants are treated at the one-leaf stage. The compounds of the invention, formulated in the form of wettable powders (WP) or as emulsion concentrates (EC), are then sprayed onto the green parts of the plants as aqueous suspension or emulsion with addition of 0.5% additive at a water application rate of 600 l/ha (converted). After the test plants have been kept in the greenhouse under optimum growth conditions for about 3 weeks, the activity of the preparations is rated visually in comparison to untreated controls. For example, 100% activity=the plants have died, 0% activity=like control plants.
(§3) Tables 20a to 38c below show the effects/crop compatibilities of selected compounds of the general formula (I) on various harmful plants at an application rate corresponding to 20 to 320 g/ha, which were obtained by the trial procedure specified above.

ECHCG = assay: Post-emergence herbicidal effect, greenhouse pot test; format: in vivo, Echinochloa crus-galli
In short: (§4)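 Greenhouse pot plants in sandy loam receive a one-leaf-stage spray at 20 to 320 g/ha. Activity is assessed visually around 3 weeks afterwards on a 0–100% scale, where 100% means the plants have died.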

VIOTR = assay: as above; format: in vivo, Viola tricolor
In short: as §4

VERPE = assay: as above; format: in vivo, Veronica persica
In short: as §4

ALOMY = assay: as above; format: in vivo, Alopecurus myosuroides
In short: as §4

LOLRI = assay: as above; format: in vivo, Lolium rigidum
Description: as §1, §2, §3

PHBPU = assay: as above; format: in vivo, Ipomoea purpurea
In short: as §4

SETVI = assay: as above; format: in vivo, Setaria viridis
In short: as §4

DIGSA = assay: as above; format: in vivo, Digitaria sanguinalis; conditions: 320 g/ha, visual rating about 3 weeks after treatment
In short: as §4

KCHSC = assay: as above; format: in vivo
Procedure: as §2, with “plants. Tables 20a to 38c below show the effects/crop compatibilities of selected compounds of the general formula (I) on various harmful plants at an application rate corresponding to 20 to 320 g/ha, which were obtained by the trial procedure specified above.” for “plants.”

ABUTH = assay: as above; format: in vivo, Abutilon theophrasti; conditions: visual rating about 3 weeks after treatment
In short: as §4

AVEFA = assay: as above; format: in vivo, Avena fatua; conditions: visual rating about 3 weeks after treatment
In short: as §4

POLCO = assay: as above; format: in vivo, Fallopia convolvulus
In short: as §4

MATIN = assay: as above; format: in vivo, Tripleurospermum inodorum
In short: as §4

[1] = 320 g/ha, visual rating about 3 weeks after treatment

Compound | Post-emergence effect against ECHCG in % (ECHCG; 80 g/ha) [%] | Post-emergence effect against ECHCG in % (ECHCG; 320 g/ha) [%] | Post-emergence effect against VIOTR in % (VIOTR; 80 g/ha) [%] | Post-emergence effect against VIOTR in % (VIOTR; 320 g/ha) [%] | Post-emergence effect against VERPE in % (VERPE; 320 g/ha) [%] | Post-emergence effect against ALOMY (ALOMY; [1]) [%] | Post-emergence effect against LOLRI in % (LOLRI; 320 g/ha) [%] | Post-emergence effect against PHBPU in % (PHBPU; 80 g/ha) [%] | Post-emergence effect against PHBPU in % (PHBPU; 320 g/ha) [%] | Post-emergence effect against SETVI in % (SETVI; 320 g/ha) [%] | Post-emergence effect against DIGSA (DIGSA) [%] | Post-emergence effect against ABUTH (ABUTH; 80 g/ha) [%] | Post-emergence effect against ABUTH (ABUTH; 320 g/ha) [%] | Post-emergence effect against AVEFA (AVEFA; 80 g/ha) [%] | Post-emergence effect against AVEFA (AVEFA; 320 g/ha) [%] | Post-emergence effect against POLCO in % (POLCO; 320 g/ha) [%] | other results
COC(=O)C(OC)Oc1nn(-c2ncccc2F)c(-c2ccc(F)nc2)c1C1CC1 (stereo not shown) [Example I-108] | 90 | 90 | 90 | 90 | 80 | 100 | 90 | 80 | 90 | 90 | 90 | 80 | 90 | 90 | 90 | 80 | Post-emergence effect at 20 g/ha against ZEAMX in % (ZEAMX; 20 g/ha): 0%; Post-emergence effect at 80 g/ha against ZEAMX in % (ZEAMX; 80 g/ha): 0%; plant injury at 320 g/ha (ZEAMX; Zea mays, 504 h, 320 g/ha, read-out: Post-emergence effect at 320 g/ha against ZEAMX in %): 0%; pest or weed control at 80 g/ha (VERPE; Veronica persica, 504 h, 80 g/ha, read-out: Post-emergence effect against VERPE in %): 80%; pest or weed control at 80 g/ha (ALOMY; Alopecurus myosuroides, 504 h, 80 g/ha, visual rating about 3 weeks after treatment, read-out: Post-emergence effect against ALOMY): 90%; Post-emergence effect against KCHSC in % (KCHSC; 320 g/ha): 90%; pest or weed control at 80 g/ha (KCHSC; 504 h, 80 g/ha, read-out: Post-emergence effect against KCHSC in %): 90%
COC(=O)C(OC)Oc1nn(-c2cc(F)ccc2F)c(-c2cncc(F)c2)c1C1CC1 (stereo not shown) [Example I-112] | 90 | 90 | 80 | 80 | 80 | 90 | 90 | 90 | 90 | 80 | 80 | 80 | 80 | 90 | 90 | 80 | Post-emergence effect against ECHCG (ECHCG; 20 g/ha, visual rating about 3 weeks after treatment): 90%; pest or weed control at 20 g/ha (VIOTR; Viola tricolor, 504 h, 20 g/ha, read-out: Post-emergence effect against VIOTR in %): 80%; Post-emergence effect against VERPE in % (VERPE; 20 g/ha): 80%; Post-emergence effect against VERPE in % (VERPE; 80 g/ha): 80%; Post-emergence effect at 20 g/ha against ALOMY in % (ALOMY; 20 g/ha, one-leaf stage, rated visually after about 3 weeks vs untreated controls): 80%; Post-emergence effect against ALOMY (ALOMY; 80 g/ha, visual rating about 3 weeks after treatment): 90%; Post-emergence effect against LOLRI in % (LOLRI; 80 g/ha): 90%; Post-emergence effect against PHBPU in % (PHBPU; 20 g/ha): 90%; Post-emergence effect against MATIN in % (MATIN; 20 g/ha): 80%; Post-emergence effect against MATIN in % (MATIN; 80 g/ha): 80%; Post-emergence effect against MATIN in % (MATIN; 320 g/ha): 80%; Post-emergence effect against SETVI in % (SETVI; 80 g/ha): 80%; pest or weed control at 320 g/ha (KCHSC; 504 h, 320 g/ha, read-out: Post-emergence effect against KCHSC in %): 80%; pest or weed control at 20 g/ha (ABUTH; Abutilon theophrasti, 504 h, 20 g/ha, read-out: Post-emergence effect against ABUTH): 80%; pest or weed control at 20 g/ha (AVEFA; Avena fatua, 504 h, 20 g/ha, read-out: Post-emergence effect against AVEFA): 90%; Post-emergence effect against POLCO in % (POLCO; 80 g/ha): 80%
